Measurements reported in PubChem BioAssay (NCI).
“And” between values parts separate entries of the source, which are not always exact repeats. Identical values can stand only once.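 Results reflect a 48-hour exposure of cells in 96-well plates to compound at five concentrations. GI50: concentration for 50% inhibition of growth. TGI marks complete inhibition of growth.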

Key:
Experiment in all cases: growth of human tumour cells (NCI), 48 h
A549 NSCLC = test system: A549 NSCLC
DLD-1 colon = test system: DLD-1 colon
HOP-18 NSCLC = test system: HOP-18 NSCLC
KM12 colon = test system: KM12 colon
MALME-3M melanoma = test system: MALME-3M melanoma
OVCAR-3 ovarian = test system: OVCAR-3 ovarian
OVCAR-5 ovarian = test system: OVCAR-5 ovarian
SK-MEL-28 melanoma = test system: SK-MEL-28 melanoma
SW-620 colon = test system: SW-620 colon
HOP-62 NSCLC = test system: HOP-62 NSCLC

Row | SMILES | TGI (A549 NSCLC) | TGI (DLD-1 colon) | TGI (HOP-18 NSCLC) | TGI (KM12 colon) | TGI (MALME-3M melanoma) | TGI (OVCAR-3 ovarian) | TGI (OVCAR-5 ovarian) [µM] | TGI (SK-MEL-28 melanoma) | TGI (SW-620 colon) | TGI (HOP-62 NSCLC) | GI50 (A549 NSCLC) [µM] | GI50 (DLD-1 colon) [µM] | GI50 (KM12 colon) [µM] | GI50 (MALME-3M melanoma) [µM] | GI50 (OVCAR-3 ovarian) [µM] | GI50 (OVCAR-5 ovarian) [µM] | GI50 (SK-MEL-28 melanoma) [µM] | GI50 (SW-620 colon) [µM] | GI50 (HOP-18 NSCLC) [µM] | GI50 (HOP-62 NSCLC) [µM]
1 | C[C@]12CCC3[C@@H](C[C@H]4OC(=O)[C@@]35CCC(=O)C=C45)C1CCC2=O (some centres not stated) | > 100 µM | > 100 µM | > 100 µM | > 100 µM | > 100 µM | > 100 µM | > 100 | > 100 µM | > 100 µM | – | – | – | – | – | – | – | – | – | – | –
2 | COC(=O)CSc1ccccc1 | > 100 µM | > 100 µM | > 100 µM | > 100 µM | 59.8 µM | > 100 µM | > 100 | – | > 100 µM | > 100 µM | – | – | – | – | – | – | – | – | – | –
3 | COc1ccc(CN2C(=O)C(Cc3cc(OC)c(OC)c(C)c3OC)N(C(=O)OC(C)C)C(=O)/C2=C/c2cc(OC)c(OC)c(C)c2OC)cc1 (configuration not stated) | > 100 µM | > 100 µM | > 100 µM | > 100 µM | > 100 µM | > 100 µM | > 100 | > 100 µM | > 100 µM | > 100 µM | – | – | – | – | – | – | – | – | – | –
4 | COc1ccc(C(=O)C(c2ccc(OC)cc2)C2C(=O)Oc3ccccc32)cc1 (configuration not stated) | > 100 µM | > 100 µM | > 100 µM | > 100 µM | > 100 µM | > 100 µM | > 100 | > 100 µM | > 100 µM | – | > 100 | > 100 | > 100 | > 100 | > 100 | > 100 | > 100 | > 100 | – | –
5 | Cc1cc(C)nc(NS(=O)(=O)c2ccc(NC(=O)c3cccc4c(Nc5ccc(S(=O)(=O)Nc6nc(C)cc(C)n6)cc5)c5ccccc5nc34)cc2)n1 | 68.2 µM | 54.2 µM | 29.7 µM | 44.3 µM | 56.7 µM | 39.8 µM | – | 46 µM | 65.3 µM | 66 µM | – | – | – | – | – | – | – | – | – | –
6 | COC(=O)NNc1c([N+](=O)[O-])cnn(-c2ccccc2)c1=O | 28.2 µM | 3.91 µM | 6.28 µM | 16.9 µM | 5.51 µM | 3.56 µM | 8.23 | 7.05 µM | 2.24 µM | 14.9 µM | – | – | – | – | – | – | – | – | – | –
7 | O=C(Nc1ccc(Cl)c(Cl)c1)C(=O)Nn1c(=S)[nH]c2ccccc2c1=O | > 100 µM | > 100 µM | > 100 µM | > 100 µM | > 100 µM | – | > 100 | > 100 µM | > 100 µM | > 100 µM | – | – | – | – | – | – | – | – | – | –
8 | CCOC(=O)NC(=O)c1cn(CCCCCOC(=O)NCCCCCCNC(=O)OCCCCCn2cc(C(=O)NC(=O)OCC)c(=O)[nH]c2=O)c(=O)[nH]c1=O | > 100 µM | > 100 µM | > 100 µM | > 100 µM | > 100 µM | > 100 µM | – | > 100 µM | > 100 µM | > 100 µM | – | – | – | – | – | – | – | – | – | –
9 | O=c1c2cc(Br)ccc2[nH]c(=S)n1-c1ccc(Br)cc1 | > 100 µM | > 100 µM | > 100 µM | > 100 µM | > 100 µM | > 100 µM | – | > 100 µM | > 100 µM | > 100 µM | – | – | – | – | – | – | – | – | – | –
10 | Cn1c(=O)nc2n(-c3ccc(F)cc3)c3ccccc3nc-2c1=O | 48.6 µM | 62.1 µM | > 100 µM | > 100 µM | 23 µM | 11 µM | 42.2 | – | 34 µM | > 100 µM | – | – | – | – | – | – | – | – | – | –
11 | O=C(CCc1nnc2s/c(=C\c3ccc4c(c3)OCO4)c(=O)n12)Nc1cc(Cl)ccc1Cl | > 100 µM | > 100 µM | > 100 µM | > 100 µM | > 100 µM | > 100 µM | > 100 | > 100 µM | > 60.5 µM | > 100 µM | – | – | – | – | – | – | – | – | – | –
12 | Cc1cc2cc(Cl)ccc2nc1C(=O)c1ccccc1 | > 100 µM | > 100 µM | > 100 µM | > 100 µM | > 100 µM | > 100 µM | > 100 | > 100 µM | > 100 µM | > 100 µM | – | – | – | – | – | – | – | – | – | –
13 | O=C1C(c2ccc([N+](=O)[O-])cc2)=[N+]([O-])c2ccccc21 | > 100 µM | > 100 µM | 26.5 µM | > 100 µM | > 100 µM | 55.4 µM | 47.5 | 77.2 µM | > 100 µM | 82.3 µM | – | – | – | – | – | – | – | – | – | –
14 | COc1cc(C2c3cc4c(cc3[C@H](NC(=O)c3cccs3)C3COC(=O)[C@H]23)OCO4)cc(OC)c1OC (some centres not stated) | 37.1 µM | 36.8 µM | > 100 µM | – | > 100 µM | > 100 µM | > 95.1 | 83.9 µM | > 100 µM | – | – | – | – | – | – | – | – | – | – | –
15 | NC(=O)c1nnn(Cc2cc(Cl)c(C(=O)c3ccc(Cl)cc3)c(Cl)c2)c1N | > 9.09 µM and 37.1 µM | > 9.09 µM and 30.8 µM | > 9.09 µM and 36.4 µM | > 9.09 µM and 35 µM | > 9.09 µM and 44.1 µM | > 9.09 µM and 25 µM | > 53.4 | > 9.09 µM and 44.6 µM | > 9.09 µM and 50.1 µM | > 9.09 µM and 41.1 µM | > 9.09 | 12.7 | > 9.09 | > 9.09 | > 9.09 | > 9.09 | > 9.09 | > 9.09 | 21.7 | > 9.09
16 | COc1ccc(C(=O)/C(=N/Nc2ccccc2)c2ccc(OC)cc2)cc1 | > 100 µM | > 100 µM | > 100 µM | > 100 µM | > 100 µM | – | > 100 | > 100 µM | > 100 µM | – | – | – | – | – | – | – | – | – | – | –
17 | C[N+](C)(C)CCC(=O)N1C/C(=C\c2ccccc2)C(=O)/C(=C/c2ccccc2)C1 | 32.1 µM | 5.78 µM | 26.7 µM | 3.11 µM | 30.4 µM | 9.31 µM | 30.6 | 15.4 µM | 2.68 µM | 33.6 µM | – | – | – | – | – | – | – | – | – | –
18 | [N-]=[N+]=Nc1ccccc1-[n+]1noc([O-])c1Br | > 100 µM | > 100 µM | > 100 µM | > 100 µM | > 100 µM | > 100 µM | – | > 100 µM | > 100 µM | > 100 µM | – | – | – | – | – | – | – | – | – | –
19 | N#Cc1ccc(/C=N\N2C(=O)c3ccccc3C2=O)cc1 | > 100 µM | > 100 µM | > 100 µM | > 100 µM | > 100 µM | > 100 µM | > 100 | > 100 µM | > 100 µM | > 100 µM | – | – | – | – | – | – | – | – | – | –
20 | COc1ccc2nc3cc(Cl)ccc3c(NCCC(=O)OCC(O)C(O)C(O[C@H](C)C(=O)NC(C)C(=O)NC(CCC(N)=O)C(=O)OCc3ccccc3)C(C=O)NC(C)=O)c2c1 (some centres not stated) | 32.4 µM | 33.6 µM | – | 41.7 µM | > 100 µM | 34.7 µM | 47 | 32.1 µM | 30.9 µM | 33.9 µM | – | – | – | – | – | – | – | – | – | –
21 | COC(=O)CCC(=O)CC(=O)C(=O)Nc1ccc(F)cc1 | > 100 µM | > 100 µM | > 100 µM | > 100 µM | > 100 µM | > 100 µM | > 100 | > 100 µM | > 100 µM | > 100 µM | – | – | – | – | – | – | – | – | – | –
22 | Nc1nc(=O)n(C2CC(O)C(O)C(CO)O2)cc1F (configuration not stated) | > 100 µM | > 100 µM | > 100 µM | – | > 100 µM | > 100 µM | > 100 | > 100 µM | > 100 µM | > 100 µM | – | – | – | – | – | – | – | – | – | –
23 | O=c1oc2c3ccc4ccccc4c3n(CCN3CCOCC3)c2c2ccccc12 | > 100 µM | > 100 µM | > 100 µM | > 100 µM | > 100 µM | > 100 µM | – | > 100 µM | > 100 µM | > 100 µM | – | – | – | – | – | – | – | – | – | –
24 | COc1c(OC(C)=O)c(OC(C)=O)cc2c1-c1ccc(OC)c(=O)cc1C(NC(C)=O)CC2 (configuration not stated) | > 100 µM | > 100 µM | > 100 µM | 0.555 µM | > 100 µM | 0.071 µM | > 100 | > 100 µM | > 100 µM | > 73 µM | – | – | – | – | – | – | – | – | – | –
